{"source": "ChEMBL document CHEMBL4342449", "about": "“Isolation of a High-Affinity Cannabinoid for the Human CB1 Receptor from a Medicinal Cannabis sativa Variety: Δ9-Tetrahydrocannabutol, the Butyl Homologue of Δ9-Tetrahydrocannabinol” (J Nat Prod, 2020)", "key": {"[1]": {"tested_on": "Mus musculus", "assay": "In vivo Cannabi-mimetic activity in C57BL6/J mouse assessed as catalepsy bar at 10 mg/kg, ip by bar test (reference value: 3.5 +/- 0.65 sec)", "assay_type": "functional"}, "[2]": {"tested_on": "Mus musculus", "assay": "(§1) Analgesic activity in formalin-induced nociception CD-1 mouse model assessed as reduction in pain behaviour by measuring less licking of formalin injected hind paw at 3 mg/kg, ip pretreated with compound 20 mins prior to formalin induction measured during second phase (every 5 mins for 15 to 60 mins after formalin injection) by formalin test", "assay_type": "functional, organism-based"}, "[3]": {"tested_on": "Mus musculus", "assay": "In vivo Cannabi-mimetic activity in C57BL6/J mouse assessed as rectal temperature at 10 mg/kg, ip measured after 50 mins (reference value: 0.53 +/- 0.21 degreeC)", "assay_type": "functional"}, "[4]": {"tested_on": "Mus musculus", "assay": "In vivo Cannabi-mimetic activity in C57BL6/J mouse assessed as catalepsy bar at 20 mg/kg, ip by bar test (reference value: 3.5 +/- 0.65 sec)", "assay_type": "functional"}, "[5]": {"tested_on": "Mus musculus", "assay": "(§2) Analgesic activity in formalin-induced nociception CD-1 mouse model assessed as reduction in pain behaviour by measuring less flinching of formalin injected hind paw at 3 mg/kg, ip pretreated with compound 20 mins prior to formalin induction co-treated with AM251 and measured every 5 mins for 1 hr by formalin test", "assay_type": "functional, organism-based"}, "[6]": {"tested_on": "Mus musculus", "assay": "as §1, with “flinching” for “licking”", "assay_type": "functional, organism-based"}, "[7]": {"tested_on": "Mus musculus", "assay": "as §1, with “flinching” for “licking”, “first” for “second”, “(0” for “(every 5 mins for 15”, “7” for “60”", "assay_type": "functional, organism-based"}, "[8]": {"tested_on": "Mus musculus", "assay": "as §2, with “licking” for “flinching”, “AM630” for “AM251”", "assay_type": "functional, organism-based"}, "[9]": {"tested_on": "Mus musculus", "assay": "as §2, with “shaking” for “flinching”", "assay_type": "functional, organism-based"}, "[10]": {"tested_on": "Mus musculus", "assay": "as §1, with “shaking” for “licking”", "assay_type": "functional, organism-based"}, "[11]": {"tested_on": "Mus musculus", "assay": "In vivo Cannabi-mimetic activity in C57BL6/J mouse assessed as alteration on the spontaneous activity at 20 mg/kg, ip measured for 15 mins by open field test (reference value: 3283 +/- 390.5 cm)", "assay_type": "functional"}, "[12]": {"tested_on": "Mus musculus", "assay": "as §2, with “favoring” for “flinching”, “AM630” for “AM251”", "assay_type": "functional, organism-based"}, "[13]": {"tested_on": "Mus musculus", "assay": "In vivo Cannabi-mimetic activity in C57BL6/J mouse assessed as alteration on the spontaneous activity at 10 mg/kg, ip measured for 15 mins by open field test (reference value: 3283 +/- 390.5 cm)", "assay_type": "functional"}, "[14]": {"tested_on": "Mus musculus", "assay": "as §1, with “first” for “second”, “(0” for “(every 5 mins for 15”, “7” for “60”", "assay_type": "functional, organism-based"}, "[15]": {"tested_on": "Mus musculus", "assay": "as §2, with “licking” for “flinching”", "assay_type": "functional, organism-based"}, "[16]": {"tested_on": "Mus musculus", "assay": "as §2, with “lifting” for “flinching”", "assay_type": "functional, organism-based"}, "[17]": {"tested_on": "Mus musculus", "assay": "as §1, with “favoring” for “licking”, “first” for “second”, “(0” for “(every 5 mins for 15”, “7” for “60”", "assay_type": "functional, organism-based"}, "[18]": {"tested_on": "Mus musculus", "assay": "In vivo Cannabi-mimetic activity in C57BL6/J mouse assessed as antinociceptive effect by measuring licking of hind paws at 10 mg/kg, ip measured for 85 mins by hot plate test (reference value: 10.15 +/- 0.70 sec)", "assay_type": "functional"}, "[19]": {"tested_on": "Mus musculus", "assay": "as §1, with “lifting” for “licking”", "assay_type": "functional, organism-based"}, "[20]": {"tested_on": "Mus musculus", "assay": "as §1, with “lifting” for “licking”, “first” for “second”, “(0” for “(every 5 mins for 15”, “7” for “60”", "assay_type": "functional, organism-based"}, "[21]": {"tested_on": "Mus musculus", "assay": "as §2, with “lifting” for “flinching”, “AM630” for “AM251”", "assay_type": "functional, organism-based"}, "[22]": {"tested_on": "Mus musculus", "assay": "as §1, with “favoring” for “licking”", "assay_type": "functional, organism-based"}, "[23]": {"tested_on": "Mus musculus", "assay": "as §2, with “shaking” for “flinching”, “AM630” for “AM251”", "assay_type": "functional, organism-based"}, "[24]": {"tested_on": "Mus musculus", "assay": "In vivo Cannabi-mimetic activity in C57BL6/J mouse assessed as antinociceptive effect by measuring licking of hind paws at 20 mg/kg, ip measured for 85 mins by hot plate test (reference value: 10.15 +/- 0.70 sec)", "assay_type": "functional"}, "[25]": {"tested_on": "Mus musculus", "assay": "as §1, with “shaking” for “licking”, “first” for “second”, “(0” for “(every 5 mins for 15”, “7” for “60”", "assay_type": "functional, organism-based"}, "[26]": {"tested_on": "Mus musculus", "assay": "In vivo Cannabi-mimetic activity in C57BL6/J mouse assessed as rectal temperature at 20 mg/kg, ip measured after 50 mins (reference value: 0.53 +/- 0.21 degreeC)", "assay_type": "functional"}, "[27]": {"tested_on": "Mus musculus", "assay": "as §2, with “AM630” for “AM251”", "assay_type": "functional, organism-based"}, "[28]": {"tested_on": "Mus musculus", "assay": "as §2, with “favoring” for “flinching”", "assay_type": "functional, organism-based"}, "[29]": {"molecular_target": "Cannabinoid receptor 1 (Homo sapiens, UniProt P21554)", "sequence (P21554 whole entry)": "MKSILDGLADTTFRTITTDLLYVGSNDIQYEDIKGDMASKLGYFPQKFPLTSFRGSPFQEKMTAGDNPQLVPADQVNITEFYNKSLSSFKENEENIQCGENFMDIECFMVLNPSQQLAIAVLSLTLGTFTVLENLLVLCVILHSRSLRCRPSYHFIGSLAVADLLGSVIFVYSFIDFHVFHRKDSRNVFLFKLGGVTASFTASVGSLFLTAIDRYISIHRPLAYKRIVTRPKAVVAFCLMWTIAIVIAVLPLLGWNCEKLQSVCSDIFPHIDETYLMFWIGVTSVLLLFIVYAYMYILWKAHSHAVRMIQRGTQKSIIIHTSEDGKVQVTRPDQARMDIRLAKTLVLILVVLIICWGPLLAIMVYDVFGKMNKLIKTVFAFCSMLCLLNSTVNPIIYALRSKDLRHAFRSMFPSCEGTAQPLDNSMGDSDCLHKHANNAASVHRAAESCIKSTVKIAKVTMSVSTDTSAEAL", "assay": "Binding affinity to human CB1 receptor"}}, "note": "Active and inactive are the calls of the source. The rule behind the calls is not given here."}
{"smiles": "CCCCc1cc(O)c2c(c1)OC(C)(C)[C@@H]1CCC(C)=C[C@@H]21", "values": [{"measurement": "Time", "setting": "[1]", "value": 3, "unit": "s"}, {"measurement": "Activity", "setting": "[2]", "value": "Active"}, {"measurement": "Activity", "setting": "[3]", "value": -0.28, "unit": "°C"}, {"measurement": "Time", "setting": "[4]", "value": 13, "unit": "s"}, {"measurement": "Activity", "setting": "[5]", "value": "inactive"}, {"measurement": "Activity", "setting": "[6]", "value": "Active"}, {"measurement": "Activity", "setting": "[7]", "value": "Active"}, {"measurement": "Activity", "setting": "[8]", "value": "inactive"}, {"measurement": "Activity", "setting": "[9]", "value": "inactive"}, {"measurement": "Activity", "setting": "[10]", "value": "Active"}, {"measurement": "Activity", "setting": "[11]", "value": 3591, "unit": "cm"}, {"measurement": "Activity", "setting": "[12]", "value": "inactive"}, {"measurement": "Activity", "setting": "[13]", "value": 3220, "unit": "cm"}, {"measurement": "Activity", "setting": "[14]", "value": "Active"}, {"measurement": "Activity", "setting": "[15]", "value": "inactive"}, {"measurement": "Activity", "setting": "[16]", "value": "inactive"}, {"measurement": "Activity", "setting": "[17]", "value": "Active"}, {"measurement": "Time", "setting": "[18]", "value": 7.94, "unit": "s"}, {"measurement": "Activity", "setting": "[19]", "value": "Active"}, {"measurement": "Activity", "setting": "[20]", "value": "Active"}, {"measurement": "Activity", "setting": "[21]", "value": "inactive"}, {"measurement": "Activity", "setting": "[22]", "value": "Active"}, {"measurement": "Activity", "setting": "[23]", "value": "inactive"}, {"measurement": "Time", "setting": "[24]", "value": 17.5, "unit": "s"}, {"measurement": "Activity", "setting": "[25]", "value": "Active"}, {"measurement": "Activity", "setting": "[26]", "value": 0.4, "unit": "°C"}, {"measurement": "Activity", "setting": "[27]", "value": "inactive"}, {"measurement": "Activity", "setting": "[28]", "value": "inactive"}]}
{"smiles": "CCCc1cc(O)c2c(c1)OC(C)(C)[C@@H]1CCC(C)=C[C@@H]21", "note": "[TETRAHYDROCANNABIVARIN]", "values": [{"measurement": "Ki", "setting": "[29]", "value": 75.4, "unit": "nM"}]}
